Earlier results in patent US20260114463A1, “COATING LIQUID COMPOSITION, PRODUCTION METHOD THEREFOR, AND LIQUID CONTAINING LOW-TEMPERATURE DAMAGE INHIBITOR” (Mitsubishi Chemical Corporation, priority 2023, published 2026).

Settings: raw material data

Glycerin monocaprylate [Example M-100]
HLB: 7.0
